The subject of assay [1] is oil palm. In words: Field study, repeat bunch-directed preharvest application of AVG every 10 days (Example 1). Format: in vivo, oil palm (bi-clonal DxP palms). On the procedure:
Plant material: A field study was executed in a plantation in Malaysia to compare the effects of repeat bunch-directed applications of AVG to the untreated control (UTC). In this study, AVG was provided in a formulation as AVG-HCl at a concentration of 20% w/wt. For both treatments, 148 palms per block with 4 rows per block covering about 1.1 hectare were used. The bi-clonal DxP palms were 3 to 4 years old.
Treatment application: A motorized mist blower was used to apply AVG (500 ppm, at 600 mL/palm or 300 mg/palm/application) to the lower and most mature rows of bunches of each palm.
The time required for 360 degree spray application around each palm was about 30 seconds. Sprays were applied every 10 days which coincided with harvest frequency in this block. Treatments were applied from September to November 2013.
Harvest: Harvest picks occurred every 10 days. Bunches were harvested at the point of initial fruit drop. At harvest, UTC bunches had lost an average of 34.8 fruit/bunch and the AVG-treated bunches had lost 33.9 fruits/bunch. Bunch weight results were recorded over six harvests picks for the 10 representative palms that were tagged for each treatment.
Oil content: At each harvest pick beginning with the fourth harvest pick interval, bunches were selected and individually bagged, tagged, and transferred to the laboratory for determination of oil content. Bunch samples from each harvest were analyzed in the laboratory for oil content using standard methods (Blaak, et al., 1963, J. West African Institute of Oil Palm Research, 4:146-155).
Oil yield: Oil yield was determined as kg oil/bunch=oil content*bunch wt. […] Oil yield was 2.85 kg/bunch for the AVG treatment and 2.56 kg/bunch for the UTC.

In assay [2] the test system is oil palm. Nature of the assay: Second field study, repeat preharvest AVG sprays every 20 days, harvest 10 days after treatment (Example 2). Format: in vivo, oil palm (bi-clonal DxP palms). The settings on record: AVG 500 ppm. As to the method:
Plant material: A second field study was executed in a plantation in Malaysia to compare the effects of repeat broadcast directed bunch applications of AVG to the untreated control (UTC). For both treatments, 148 palms per block with 4 rows per block covering about 1.1 ha were used. The bi-clonal DxP palms were 3 to 4 years old. Treatment application: A motorized mist blower was used to apply AVG (500 ppm at 600 mL/plant or 300 mg/palm/application) to the lower and most mature rows of bunches of each palm plant. The time required for 360 degree spray application per palm plant was about 30 seconds. Treatments were applied every 20 days and harvests of treated palms were 10 days after treatments. Untreated bunches were harvested every 10 days. Treatments were applied from September to November 2013. Oil yield: Oil yield was determined as kg oil/bunch=oil content*bunch wt. […] Oil yield was 2.80 kg/bunch for the AVG treatment and 2.51 kg/bunch for the UTC.

The test system of assay [3] is oil palm. Nature of the assay: Oil quality (free fatty acid content) of oil from AVG-HCl treated oil palms. It counts as in vivo. To be noted: Rath and Shashikant 2014, Valent BioSciences technical information.
For a further assay, the system named is oil palm fruit. The settings on record: preharvest application to attached bunches of oil palm fruit; cited from earlier work.

Results on three molecules are retold here after patent publication US9445588B2, “Methods for increasing oil palm yield” (Valent BioSciences Corporation, priority 2014, dated 2016).

Consider `NCCO/C=C/[C@H](N)C(=O)O` (stereo in doubt) [AVG, [S]-trans-2-amino-4-(2-aminoethoxy)-3-butenoic acid], for which the “Average Oil Content” value in the assay on oil palm [1] (AVG 500 ppm, 600 mL/palm (300 mg/palm/application), sprays every 10 days, bunches from fourth harvest pick on) is reported as 0.284 oil wt/bunch wt; in the assay on oil palm [2] (600 mL/plant (300 mg/palm/application)), 0.299 oil wt/bunch wt. The “Oil Yield (oil content*bunch wt)” value in the assay on oil palm [1] (AVG 500 ppm, 600 mL/palm, sprays every 10 days) is 2.85 kg oil/bunch; in the assay on oil palm [2] (600 mL/plant), 2.80 kg oil/bunch. Moreover, the “Average Bunch Weight” value in the assay with oil palm [1] (AVG 500 ppm, 600 mL/palm, sprays every 10 days, six harvest picks, 10 tagged palms) is given as 10.02 kg/bunch; in the assay with oil palm [2] (600 mL/plant) it was 9.36 kg/bunch. In addition, the “Average fruit lost per bunch at harvest” value in the assay on oil palm [1] (bunches harvested at the point of initial fruit drop, UTC 34.8 fruit/bunch) is 33.9 fruits/bunch.

Regarding `Cl.NCCO/C=C/[C@H](N)C(=O)O` [AVG-HCl], in the assay on oil palm [3], the “Free fatty acid content of the oil” value is given as “did not have increased free fatty acid content”.

`O=P(O)(O)CCCl` [ethephon, 2-chloroethyl phosphonic acid]: in the assay with oil palm fruit, the “Increase in oil content” value was 7%.
